Measured values as given in patent EP0711545B1, “Aqueous mild surfactants containing preparations for cosmetic and cleaning use” (priority 1994, dated 1996).

System: Rote Blutkörperchen
Experiment: Red blood cell test (RBC test): lysis of blood cells and denaturation of released haemoglobin
Assay type: cell-based
Excerpt: Fettsäureamidopropylbetaine, abgeleitet von Fettsäuren unterschiedlicher Kettenlängen, werden mit Hilfe einer in-vitro-Methode, dem Rote-Blutkörperchen-Test (RBC), auf ihre physiologische Verträglichkeit untersucht.
Hierbei werden zur Charakterisierung der typischen irritativen Wechselbeziehung von Tensiden mit intakten Zellstrukturen die Zerstörung der Blutzellen durch Lyse und die Denaturierung des freigesetzten Hämoglobins gemessen. Das Ergebnis stellt der Quotient aus Lyse (L) und Denaturierung (D) L/D dar. Je kleiner der L/D-Wert ist, desto reizender ist die Substanz bzw. Formulierung einzustufen.

[1] = Table 1: single betaines, the smaller L/D, the more irritant
[2] = Table 1: single fatty acid amidopropyl betaines
[3] = Table 3: 10 % betaine + 5 % APG in water
[4] = Table 3: 10 % betaine + 5 % LSSDNa in water
[5] = Table 3: 10 % betaine + 5 % NaLSC in water

Row | Compound | L/D [1] | Denaturierung (D) [2] | Lyse (L) [2] | Denaturierung (D) [3] | L/D [3] | Lyse (L) [3] | Denaturierung (D) [4] | L/D [4] | Lyse (L) [4] | Denaturierung (D) [5] | L/D [5] | Lyse (L) [5]
1 | CCCCCCCC(=O)NCCC[N+](C)(C)CC(=O)[O-] [C8-Betain] | >> 100 | keine Hämolyse | keine Hämolyse | – | – | – | – | – | – | – | – | –
2 | CCCCCCCCCC(=O)NCCC[N+](C)(C)CC(=O)[O-] [C10-Betain] | >> 100 | keine Hämolyse | keine Hämolyse | – | – | – | – | – | – | – | – | –
3 | CCCCCCCCCCCCCCCC(=O)NCCC[N+](C)(C)CC(=O)[O-] [C16-Betain] | 1,0 | 4,4 | 4,4 | – | – | – | – | – | – | – | – | –
4 | CCCCCCCCCCCC(=O)NCCC[N+](C)(C)CC(=O)[O-] [C12-Betain] | 8,9 | 17 | 151 | <1 | >100 | 81 | 13 | 3,8 | 49 | 18 | 4,7 | 84
5 | CCCCCCCCCCCCCC(=O)NCCC[N+](C)(C)CC(=O)[O-] [C14-Betain] | 1,4 | 9,2 | 13 | – | – | – | – | – | – | – | – | –
